Laboratory results published in the NIST ThermoML archive (doi:10.1021/je0504360).
Numbers after ± are expanded uncertainties.

Experiments:
[1] = Molar enthalpy of transition or fusion; details: Crystal; DSC
[2] = Crystal; DTA

## COc1ccc2cc3[n+](cc2c1OC)CCc1cc2c(cc1-3)OCO2.[Cl-]
[1]
  Molar enthalpy of transition or fusion: 39.9 ± 0.89 kJ/mol
[2]
  Normal melting temperature: 200.1 ± 1.1 °C
